Structures can show the parent of a compound that is named as a salt. Where two headings read alike, the source gives them in different places.

The target of one assay is human μ-opiate receptor (Homo sapiens, UniProt P35372). Briefly: Affinity for the human μ-opiate receptor ([3H]-naloxone displacement, SPA, CHO-K1 membrane preparation). To be noted: for inhibition at 1 µM: read-out: μ-Opioid receptor, % inhibition [1 μM]; for Ki: read-out: μ-Opioid receptor, Ki. The class given is binding.
Another assay addresses T1, Serotonin (5HT) reuptake (Rattus norvegicus, UniProt P31652).
T1 construct: synaptosomes are freshly isolated from areas of rat brain; from tissue; host or cells: rat brain synaptosomes (P2 fraction)
The experiment in a line: Serotonin (5HT) reuptake inhibition in rat brain synaptosomes (P2 fraction). The assay is classed as biochemical. To be noted: for inhibition at 10 µM: read-out: Serotonin reuptake, % inhibition [10 μM]. The text has this: Noradrenaline (NA) and Serotonin (5HT) Reuptake Inhibition
In order to be able to carry out these studies in vitro, synaptosomes are freshly isolated from areas of rat brain. A so-called “P2” fraction prepared by the method of Gray and Whittaker (E. G. Gray and V. P. Whittaker (1962) J. Anat. 76, 79-88) is used in each case. For the NA uptake, these vesicular particles are isolated from the hypothalamus of male rat brains.
A detailed description of the method will be found in the literature (M. Ch. Frink, H. H. Hennies, W. Englberger, M. Haurand and B. Wilffert (1996) Arzneim.-Forsch./Drug Res. 46 (III), 11, 1029-1036).

In assay [1] the target is T2, Noradrenaline (NA) reuptake (Rattus norvegicus, UniProt Q63380).
T2 construct: synaptosomes are freshly isolated from areas of rat brain; from tissue; host or cells: rat hypothalamus synaptosomes (P2 fraction)
Briefly: Noradrenaline (NA) reuptake inhibition in rat brain synaptosomes (hypothalamus, P2 fraction). The class given is biochemical. The method, boiled down: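 Freshly isolated rat brain synaptosomes (P2 fraction, Gray–Whittaker method) used for uptake; for NA uptake the particles came from hypothalamus of male rats.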

Where [2] appears, read: 1 μM test substance, inhibition of specific [3H]-naloxone binding.
Where [3] appears, read: read-out: NA reuptake, % inhibition [10 μM].

T2 sequence (Q63380 1-617): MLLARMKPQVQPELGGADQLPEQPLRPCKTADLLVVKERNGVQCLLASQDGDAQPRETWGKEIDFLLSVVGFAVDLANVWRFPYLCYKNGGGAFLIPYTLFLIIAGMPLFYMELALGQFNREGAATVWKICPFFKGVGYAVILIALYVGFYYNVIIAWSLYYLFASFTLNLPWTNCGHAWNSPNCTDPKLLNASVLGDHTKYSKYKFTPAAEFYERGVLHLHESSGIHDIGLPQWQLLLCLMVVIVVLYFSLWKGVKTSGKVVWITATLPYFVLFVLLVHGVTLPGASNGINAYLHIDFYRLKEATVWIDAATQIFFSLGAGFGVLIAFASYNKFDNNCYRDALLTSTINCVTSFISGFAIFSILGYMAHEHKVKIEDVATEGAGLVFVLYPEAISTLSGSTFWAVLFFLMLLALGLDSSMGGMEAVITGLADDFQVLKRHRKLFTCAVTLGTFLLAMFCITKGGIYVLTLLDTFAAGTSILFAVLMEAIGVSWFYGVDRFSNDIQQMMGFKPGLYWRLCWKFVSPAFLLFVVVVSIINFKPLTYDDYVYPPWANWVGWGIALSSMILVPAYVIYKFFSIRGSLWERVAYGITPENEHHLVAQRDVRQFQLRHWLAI
Chain of human μ-opiate receptor (P35372 whole entry): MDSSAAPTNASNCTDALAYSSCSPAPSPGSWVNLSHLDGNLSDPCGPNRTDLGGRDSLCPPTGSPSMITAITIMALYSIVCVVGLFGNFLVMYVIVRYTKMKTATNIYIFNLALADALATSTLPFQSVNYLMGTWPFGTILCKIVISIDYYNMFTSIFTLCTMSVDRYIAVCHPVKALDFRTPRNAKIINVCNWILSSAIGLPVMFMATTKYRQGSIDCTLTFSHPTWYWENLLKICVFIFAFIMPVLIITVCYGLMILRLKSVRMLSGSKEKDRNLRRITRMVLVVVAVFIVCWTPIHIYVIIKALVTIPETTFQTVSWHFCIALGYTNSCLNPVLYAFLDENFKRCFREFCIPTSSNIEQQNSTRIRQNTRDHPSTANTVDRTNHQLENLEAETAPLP
T1 sequence (P31652 whole entry): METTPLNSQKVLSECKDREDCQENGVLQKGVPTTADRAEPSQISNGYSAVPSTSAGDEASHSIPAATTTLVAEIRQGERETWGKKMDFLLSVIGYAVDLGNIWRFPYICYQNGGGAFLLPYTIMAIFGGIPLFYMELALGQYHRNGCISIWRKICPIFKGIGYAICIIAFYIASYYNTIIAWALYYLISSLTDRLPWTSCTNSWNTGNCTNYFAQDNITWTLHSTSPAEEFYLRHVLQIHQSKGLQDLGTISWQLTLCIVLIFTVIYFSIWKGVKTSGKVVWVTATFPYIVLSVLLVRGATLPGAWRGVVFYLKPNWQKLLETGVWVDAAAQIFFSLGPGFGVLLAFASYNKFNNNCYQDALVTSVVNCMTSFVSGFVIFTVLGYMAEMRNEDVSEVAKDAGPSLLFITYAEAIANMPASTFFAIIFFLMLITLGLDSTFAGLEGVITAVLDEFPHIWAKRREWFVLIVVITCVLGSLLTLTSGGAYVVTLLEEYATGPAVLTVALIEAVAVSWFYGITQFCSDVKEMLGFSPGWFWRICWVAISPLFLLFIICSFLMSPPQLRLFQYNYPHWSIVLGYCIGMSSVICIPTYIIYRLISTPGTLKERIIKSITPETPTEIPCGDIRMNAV

Consider `CCOC(=O)C=C1CCC(C(c2cccc(F)c2)N(C)C)CC1` (centres unmarked) [compound 129, {4-[dimethylamino-(3-fluorophenyl)-methyl]-cyclohexylidene}-acetic acid ethyl ester], for which the inhibition (in general, the change of the read-out against control, counted positive when it falls) at 1 µM at human μ-opiate receptor (setting [2]) came to 47%. The Ki (as a rule, the equilibrium dissociation constant of an inhibitor or competing ligand from its target) on human μ-opiate receptor was 540 nM; at Serotonin (5HT) reuptake it was 86 nM. Besides, the inhibition at 10 µM at Serotonin (5HT) reuptake was 91%; in assay [1] (setting [3]), 81%.

With `COc1ccc(NC(=O)NC2CCC(C(c3ccccc3)N(C)C)CC2)cc1` (centres unmarked) [compound 82, 1-(4-((dimethylamino)(phenyl)methyl)cyclohexyl)-3-(4-methoxyphenyl)urea], the inhibition at 1 µM at human μ-opiate receptor (setting [2]) was found to be 92%. Also, the Ki on human μ-opiate receptor was determined as 190 nM; on Serotonin (5HT) reuptake, 110 nM; in assay [1], 120 nM. The inhibition at 10 µM (on Serotonin (5HT) reuptake; in assay [1] (setting [3])) was 98% throughout.

Turning to `CN(C)C(c1ccccc1)C1CCC(OCc2ccccc2)CC1` (centres unmarked) [compound 144, 4-(benzyloxy)cyclohexyl)-N,N-dimethyl(phenyl)methanamine hydrochloride], on human μ-opiate receptor (setting [2]), the inhibition at 1 µM is 81%. For the same molecule, the Ki at human μ-opiate receptor was 120 nM. The inhibition at 10 µM at Serotonin (5HT) reuptake is 80%; in assay [1] (setting [3]), 75%.

For the molecule `CN(C)C(c1ccc(F)cc1)C1CCC(O)CC1` (centres unmarked) [compound 112, 4-[dimethylamino-(4-fluorophenyl)-methyl]-cyclohexanol], at human μ-opiate receptor (setting [2]), the inhibition at 1 µM stood at 66%. Also, the inhibition at 10 µM on Serotonin (5HT) reuptake came to 82%; in assay [1] (setting [3]) it was 74%.

As to `CN(C)C(c1ccccc1)C1CCC(CC=O)CC1` (centres unmarked) [compound 46, [4-(Dimethylamino-phenyl-methyl)-cyclohexyl]-acetaldehyde], on human μ-opiate receptor (setting [2]), the inhibition at 1 µM worked out at 75%. Also, the inhibition at 10 µM is 92% at Serotonin (5HT) reuptake and 95% in assay [1] (setting [3]).

Take `CCOC(=O)C=CC1CCC(C(c2cccc(F)c2)N(C)C)CC1` (centres unmarked) [compound 138, 3-{4-[dimethylamino-(3-fluorophenyl)-methyl]-cyclohexyl}-acrylic acid ethyl ester]: the inhibition at 1 µM on human μ-opiate receptor (setting [2]) worked out at 73%. Further, the values for the Ki (at human μ-opiate receptor; on Serotonin (5HT) reuptake; in assay [1]) were 92 nM, 310 nM and 620 nM, respectively. The figures for the inhibition at 10 µM (on Serotonin (5HT) reuptake; in assay [1] (setting [3])) were 84% and 96%, respectively.

With `CN(C)C(c1ccccc1)C1CCC(NC(=O)Nc2cccc3ccccc23)CC1` (centres unmarked) [compound 73, 1-(4-((dimethylamino)(phenyl)methyl)cyclohexyl)-3-(naphthalen-1-yl)urea], on human μ-opiate receptor (setting [2]), the inhibition at 1 µM was 96%. Besides, the Ki is 46 nM on human μ-opiate receptor, 61 nM at Serotonin (5HT) reuptake and 180 nM in assay [1]. Moreover, the inhibition at 10 µM on Serotonin (5HT) reuptake was determined as 90%; in assay [1] (setting [3]), 94%.

For `CN(C)C(c1ccc(Cl)cc1)C1CCC(O)CC1` (centres unmarked) [compound 114, 4-[(4-chlorophenyl)-dimethylamino-methyl]-cyclohexanol], the inhibition at 1 µM at human μ-opiate receptor (setting [2]) worked out at 43%. Moreover, the inhibition at 10 µM on Serotonin (5HT) reuptake worked out at 64%; in assay [1] (setting [3]), 93%.

Consider `CN(C)C(c1ccccc1)C1CCC(NS(=O)(=O)c2ccc(Cl)cc2)CC1` (centres unmarked) [compound 106, 4-chloro-N-(4-((dimethylamino)(phenyl)methyl)cyclohexyl)benzene-sulfonamide hydrochloride], for which the inhibition at 1 µM on human μ-opiate receptor (1 μM, sulfonamides (Table 17)) turned out to be 96%. For the same molecule, the Ki on human μ-opiate receptor (sulfonamides (Table 17)) is 3.7 nM. Moreover, the results for the inhibition at 10 µM (at Serotonin (5HT) reuptake; in assay [1] (setting [3])) were 83% and 68%, respectively.

`CCOC(=O)CCC1CCC(C(c2ccc(F)cc2)N(C)C)CC1` (centres unmarked) [compound 136, 3-{4-[dimethylamino-(4-fluorophenyl)-methyl]-cyclohexyl}-propionic acid ethyl ester]: at human μ-opiate receptor (setting [2]), the inhibition at 1 µM was 73%. In addition, the Ki on human μ-opiate receptor stood at 230 nM; on Serotonin (5HT) reuptake, 83 nM; in assay [1] it was 580 nM. The figures for the inhibition at 10 µM (on Serotonin (5HT) reuptake; in assay [1] (setting [3])) were 86% and 89%, respectively.

In the case of `CN(C)C(c1ccccc1)C1CCC(NCCc2c[nH]c3ccccc23)CC1` (centres unmarked) [compound 83, N-(2-(1H-indol-3-yl)ethyl)-4-((dimethylamino)(phenyl)methyl)-cyclohexanamine hydrochloride], on human μ-opiate receptor (setting [2]), the inhibition at 1 µM amounted to 95%. Moreover, the Ki on human μ-opiate receptor stood at 7 nM. Further, the inhibition at 10 µM is 93% on Serotonin (5HT) reuptake and 100% in assay [1] (setting [3]).

Consider `COc1ccc(NC2CCC(C(c3ccccc3)N(C)C)CC2)cc1` (centres unmarked) [compound 89, N-(4-((dimethylamino)(phenyl)methyl)cyclohexyl)-4-methoxybenzenamine hydrochloride], for which, at human μ-opiate receptor (setting [2]), the inhibition at 1 µM stood at 95%. Further, the Ki on human μ-opiate receptor turned out to be 59 nM. Further, the figures for the inhibition at 10 µM (on Serotonin (5HT) reuptake; in assay [1] (setting [3])) were 73% and 85%, respectively.

Regarding `CN(C)C(c1cccc(F)c1)C1CCC(CCCO)CC1` (centres unmarked) [compound 140, 3-{4-[dimethylamino-(3-fluorophenyl)-methyl]-cyclohexyl}-propan-1-ol], the inhibition at 1 µM at human μ-opiate receptor (setting [2]) stood at 31%. For the same molecule, the inhibition at 10 µM at Serotonin (5HT) reuptake is 85%; in assay [1] (setting [3]), 94%.

Regarding `CN(C)C(c1ccc(Cl)cc1)C1CCC(CO)CC1` (centres unmarked) [compound 120, {4-[(4-chlorophenyl)-dimethylamino-methyl]-cyclohexyl}-methanol], the inhibition at 1 µM at human μ-opiate receptor (setting [2]) turned out to be 51%. Also, the values for the inhibition at 10 µM (at Serotonin (5HT) reuptake; in assay [1] (setting [3])) were 79% and 93%, respectively.

Turning to `CN(C)C(c1cccc(F)c1)C1CCC(CN)CC1` (centres unmarked) [compound 36, [(4-aminomethyl-cyclohexyl)-(3-fluorophenyl)-methyl]-dimethylamine], the inhibition at 1 µM at human μ-opiate receptor (setting [2]) was found to be 68%. Also, the Ki turned out to be 96 nM at Serotonin (5HT) reuptake and 110 nM in assay [1]. In addition, the inhibition at 10 µM is 89% on Serotonin (5HT) reuptake and 93% in assay [1] (setting [3]).

As to `CN(C)C(c1ccccc1)C1CCC(N(Cc2ccccc2)C(=O)c2ccccc2)CC1` (centres unmarked) [compound 104, N-benzyl-N-(4-((dimethylamino)(phenyl)methyl)cyclohexyl)benzamide hydrochloride], on human μ-opiate receptor, the inhibition at 1 µM is 92%. The inhibitory constant (Ki) on human μ-opiate receptor came out at 14 nM; on Serotonin (5HT) reuptake, 440 nM; in assay [1] it was 320 nM. Besides, the inhibition at 10 µM on Serotonin (5HT) reuptake came out at 90%; in assay [1] (read-out: Na reuptake, % inhibition [10 μM]), 92%.

On to `CN(C)C(c1ccccc1)C1CCC(NC(=O)Nc2cccc(C(F)(F)F)c2)CC1` (centres unmarked) [compound 75, 1-(4-((dimethylamino)(phenyl)methyl)cyclohexyl)-3-(3-(trifluoromethyl)-phenyl)urea hydrochloride], for which the inhibition at 1 µM on human μ-opiate receptor (setting [2]) is 88%. The Ki at human μ-opiate receptor was found to be 98 nM; at Serotonin (5HT) reuptake, 13 nM; in assay [1] it was 550 nM. For the same molecule, the figures for the inhibition at 10 µM (at Serotonin (5HT) reuptake; in assay [1] (setting [3])) were 80% and 88%, respectively.

For `CN(C)C(c1cccs1)C1CCC(CC=O)CC1` (centres unmarked) [compound 67, {4-[Dimethylamino-thiophen-2-yl-methyl]-cyclohexyl}-acetaldehyde], on human μ-opiate receptor, the Ki was 200 nM. The inhibition at 10 µM on Serotonin (5HT) reuptake is 95%; in assay [1] (setting [3]), 86%.

As to `CCOC(=O)CCC1CCC(C(c2cccc(F)c2)N(C)C)CC1` (centres unmarked) [compound 139, 3-{4-[dimethylamino-(3-fluorophenyl)-methyl]-cyclohexyl}-propionic acid ethyl ester], at human μ-opiate receptor (setting [2]), the inhibition at 1 µM is 90%. Besides, the Ki came to 44 nM at human μ-opiate receptor, 58 nM on Serotonin (5HT) reuptake and 790 nM in assay [1]. The inhibition at 10 µM on Serotonin (5HT) reuptake was 89%; in assay [1] (setting [3]), 94%.
